The record followed here is BindingDB's records for PubMed 31931340 (n/a, 2020).

The target in the assay is PIK3CA. Nature of the assay: Inhibition of human P13Kalpha.

What is called IC50 is the midpoint of a concentration-inhibition curve. A higher IC50 goes with a need for much substance. Consider `CN(c1nc(-c2cnc(N)nc2)nc(N2CCOCC2)n1)C1CCN(C(=O)c2ccccc2)CC1`, for which the midpoint of inhibition, the IC50, lay at 15 nM.
